What all share (format): cell-based
The subject of one assay is SW480 colon cancer cells. Description: Cell viability assay (CellTiter-Blue) in SW480 colon cancer cells. The note with it: Homo sapiens; for EC50: 96 h, SW480 cell viability, four days; for inhibition at 10 µM: SW480, read-out: percent inhibition at 10 μM. As for the experimental part: Representative compounds were screened using the following assay procedure to assess the effect on cell viability as described below.
Approximately 2×10^3 SW480 colon cancer cells were seeded into each well and allowed to incubate in the presence or absence of compound for four days at 37° C./5% CO2. Eight replicates of DMSO-treated cells served as controls and cells treated with compound were performed in duplicate.
After incubation, 20 μL of CellTiter-Blue (Promega) was added to each well allowed to incubate for approximately 3 hours. This reagent was a buffered solution which contains resazurin, metabolically active cells were able to reduce rezarurin (blue) into resorufin (pink) which was highly fluorescent. This measured fluorescence was used as a readout for cell viability.

In assay [1] the test system is Wnt activity (Sp5-Luc reporter, SW480 colon carcinoma cells). The assay is described as follows: Screening assay for Wnt activity: Sp5-Luc reporter gene assay in SW480 colon carcinoma cells. The note with it: Homo sapiens; for EC50: Sp5-Luc reporter, SW480 cells, overnight incubation; for inhibition at 10 µM: SW480, read-out: percent inhibition at 10 μM. The source says:
The screening assay for Wnt activity is described as follows. Reporter cell lines can be generated by stably transducing cancer cell lines (e.g., colon cancer) or primary cells (e.g., IEC-6 intestinal cells) with a lentiviral construct that includes a Wnt-responsive promoter driving expression of the firefly luciferase gene.
SW480 colon carcinoma cells were transduced with a lentiviral vector expressing luciferase with a human Sp5 promoter consisting of a sequence of eight TCF/LEF binding sites. SW480 cells stably expressing the Sp5-Luc reporter gene and a hygromycin resistance gene were selected by treatment with 150 μg/mL of hygromycin for 7 days. These stably transduced SW480 cells were expanded in cell culture and used for all further screening activities. […] For Sp5-Luc reporter gene assays, the cells were plated at 4,000 cells/well in 384-well plates with medium containing 1% fetal bovine serum and incubated overnight at 37° C. and 5% CO2. Following incubation, 20 μl of BrightGlo luminescence reagent (Promega) was added to each well of the 384-well assay plates. The plates were placed on an orbital shaker for 2 min and then luminescence was quantified using the Envision (Perkin Elmer) plate reader. Readings were normalized to DMSO only treated cells, and normalized activities were utilized for EC50 calculations using the dose-response log (inhibitor) vs. response-variable slope (four parameters) nonlinear regression feature available in GraphPad Prism 5.0 (or Dotmatics).
On the technique in general: In a reporter assay the amount or activity of a reporter protein is the signal.

Another assay deals with IL-6 (THP-1 cells). The assay is described as follows: IL-6 inhibition in LPS-stimulated THP-1 monocytes (HTRF). The note with it: Homo sapiens; for EC50: IL-6, THP-1 cells, LPS 500 ng/mL, 22 hours; for inhibition at 10 µM: THP-1, read-out: percent inhibition at 10 μM. As for the experimental part:
Compound Screening: THP-1 cells were cultured in basal media with 1% FBS for 24 hours before the start of the assay. […] THP-1 cells were plated at 5000 cells/well in the 384-well plates and incubated at 37° C. for 2 h. 500 ng/mL of LPS was added after 2 hours and cells were incubated for another 22 hours at 37° C. Plates were spun in a centrifuge for 1 minute at […] and a mixture of anti-IL6 XL665, and anti-IL6 Cryptate diluted in reconstitution buffer (Cisbio Inc.) was added to each well. Following incubation for 3 hrs at room temperature, Homogeneous Time-Resolved Fluorescence (HTRF) was measured using the Envision (Perkin Elmer) at 665 nm and […]. The ratio of fluorescence at 665 nm to 620 nm was used as a readout for IL6 quantification. All samples were processed in duplicate. Readings were normalized to DMSO treated cells and normalized activities were utilized for EC50 calculations using the dose-response log (inhibitor) vs. response-variable slope (four parameters) nonlinear regression feature available in GraphPad Prism 5.0 (or Dotmatics).

Assay [2] deals with primary human fibroblasts derived from IPF patients (LL29 cells) treated with TGF-β1. The assay is described as follows: Inhibition of the fibrotic process: αSMA staining in TGF-β1 treated LL29 fibroblasts. As to conditions: Fibroblast; for EC50: 96 h, % αSMA positive LL29 cells, TGF-β1 20 ng/mL, 4 days; for inhibition at 10 µM: read-out: percent inhibition at 10 μM. As for the experimental part: Representative compounds were screened using primary human fibroblasts (derived from IPF patients) treated with TGF-β1 to determine their ability to inhibit the fibrotic process.
LL29 cells are plated at 1,500 cells/well in 80 μL/well F12 medium supplemented with 1% Fetal Bovine Serum. […] Wells treated with TGF-β1 and containing DMSO were used as controls. […] Following incubation for 4 days, SYTOX green nucleic acid stain (Life Technologies [Thermo Fisher Scientific]) was added to the wells at a final concentration of 1 μM and incubated at room temperature for 30 min.

As a reminder, the EC50 is the concentration giving half of the maximal effect. Higher therefore signals a need for much substance. Take `O=C(Cc1ccccc1)Nc1cncc(-c2cc3c(-c4cc5c(-c6ccccc6F)nccc5[nH]4)n[nH]c3cn2)c1` [Compound 66, N-(5-(3-(4-(2-Fluorophenyl)-1H-pyrrolo[3,2-c]pyridin-2-yl)-1H-pyrazolo[3,4-c]pyridin-5-yl)pyridin-3-yl)-2-phenylacetamide]: the EC50 came out at 1.85 µM with SW480 colon cancer cells, 2 µM in assay [1], 3.25 µM with IL-6 (THP-1 cells) and 3.31 µM in assay [2].
For `CC(C)(C)C(=O)Nc1cncc(-c2cc3c(-c4cc5c(-c6cccc(F)c6)nccc5[nH]4)n[nH]c3cn2)c1` [Compound 8, N-(5-(3-(4-(3-Fluorophenyl)-1H-pyrrolo[3,2-c]pyridin-2-yl)-1H-pyrazolo[3,4-c]pyridin-5-yl)pyridin-3-yl)pivalamide], the EC50 came out at 1.72 µM with SW480 colon cancer cells, 1.18 µM in assay [1], 0.94 µM in the assay with IL-6 (THP-1 cells) and 0.627 µM in assay [2].
Broadly, the inhibition is the change of the read-out against control, counted positive when it falls. As for `CN1CCN(c2nccc3[nH]c(-c4n[nH]c5cnc(-c6cncc(NC(=O)CC7CCNCC7)c6)cc45)cc23)CC1` [Compound 641, N-(5-(3-(4-(4-Methylpiperazin-1-yl)-1H-pyrrolo[3,2-c]pyridin-2-yl)-1H-pyrazolo[3,4-c]pyridin-5-yl)pyridin-3-yl)-2-(piperidin-4-yl)acetamide], the EC50 is more than 10 µM in the assay on SW480 colon cancer cells, more than 10 µM in assay [1], more than 10 µM in the assay on IL-6 (THP-1 cells) and 5.12 µM in assay [2]. Moreover, the figures for the inhibition at 10 µM (with SW480 colon cancer cells; in assay [1]; in the assay with IL-6 (THP-1 cells)) were 4.4%, 7.9% and 14.4%, respectively.
As for `O=C(Nc1cncc(-c2cc3c(-c4cc5c(-c6cccc(F)c6)nccc5[nH]4)n[nH]c3cn2)c1)c1ccccc1` [Compound 11, N-(5-(3-(4-(3-Fluorophenyl)-1H-pyrrolo[3,2-c]pyridin-2-yl)-1H-pyrazolo[3,4-c]pyridin-5-yl)pyridin-3-yl)benzamide], the EC50 in the assay on SW480 colon cancer cells was more than 10 µM; in assay [1], 3.82 µM; in the assay with IL-6 (THP-1 cells), more than 10 µM; in assay [2], more than 10 µM. In addition, the inhibition at 10 µM was 34.7% with SW480 colon cancer cells, 26.9% in the assay on IL-6 (THP-1 cells) and 0% in assay [2].
For `CS(=O)(=O)NCc1cc(F)cc(-c2nccc3[nH]c(-c4n[nH]c5cnc(-c6ccccn6)cc45)cc23)c1` [Compound 504, N-(3-Fluoro-5-(2-(5-(pyridin-2-yl)-1H-pyrazolo[3,4-c]pyridin-3-yl)-1H-pyrrolo[3,2-c]pyridin-4-yl)benzyl)methanesulfonamide], the EC50 was 1.56 µM with SW480 colon cancer cells, 1.67 µM in assay [1], 2.15 µM in the assay on IL-6 (THP-1 cells) and 3.39 µM in assay [2].
In the same order, the values of `CCCCC(=O)Nc1cncc(-c2cc3c(-c4cc5c(-c6cccc(F)c6)nccc5[nH]4)n[nH]c3cn2)c1` [Compound 19, N-(5-(3-(4-(3-Fluorophenyl)-1H-pyrrolo[3,2-c]pyridin-2-yl)-1H-pyrazolo[3,4-c]pyridin-5-yl)pyridin-3-yl)pentanamide] are 1.33 µM, 1.14 µM, 1.09 µM and 0.96 µM.
Consider `CC(C)CC(=O)Nc1cncc(-c2cc3c(-c4cc5c(-c6cc(F)cc(CNS(C)(=O)=O)c6)nccc5[nH]4)n[nH]c3cn2)c1` [Compound 478, N-(5-(3-(4-(3-Fluoro-5-(methylsulfonamidomethyl)phenyl)-1H-pyrrolo[3,2-c]pyridin-2-yl)-1H-pyrazolo[3,4-c]pyridin-5-yl)pyridin-3-yl)-3-methylbutanamide], for which the EC50 (with SW480 colon cancer cells; in assay [1]; with IL-6 (THP-1 cells); in assay [2]) was more than 10 µM throughout. Also, the inhibition at 10 µM is 6.3% in the assay on SW480 colon cancer cells, 38.7% in assay [1], 41.3% with IL-6 (THP-1 cells) and 29% in assay [2].
For the molecule `CS(=O)(=O)NCc1cc(F)cc(-c2nccc3[nH]c(-c4n[nH]c5cnc(-c6cncc(CN7CCCC7)c6)cc45)cc23)c1` [Compound 490, N-(3-Fluoro-5-(2-(5-(5-(pyrrolidin-1-ylmethyl)pyridin-3-yl)-1H-pyrazolo[3,4-c]pyridin-3-yl)-1H-pyrrolo[3,2-c]pyridin-4-yl)benzyl)methanesulfonamide], the EC50 is more than 10 µM in the assay with SW480 colon cancer cells, more than 10 µM in assay [1], 3.86 µM with IL-6 (THP-1 cells) and more than 10 µM in assay [2]. For the same molecule, the values for the inhibition at 10 µM (in the assay with SW480 colon cancer cells; in assay [1]; in assay [2]) were 5.5%, 28.7% and 0%, respectively.
Regarding `Fc1cccc(-c2nccc3[nH]c(-c4n[nH]c5cnc(C6CCNCC6)cc45)cc23)c1` [Compound 505, 3-(4-(3-Fluorophenyl)-1H-pyrrolo[3,2-c]pyridin-2-yl)-5-(piperidin-4-yl)-1H-pyrazolo[3,4-c]pyridine], the EC50 (with SW480 colon cancer cells; in assay [1]; in the assay on IL-6 (THP-1 cells); in assay [2]) was more than 10 µM in each case. Moreover, the inhibition at 10 µM in the assay with SW480 colon cancer cells was 5.2%; in assay [1], 28.3%; in the assay on IL-6 (THP-1 cells), 16.4%; in assay [2], 0%.
`c1ccc(-c2cc3c(-c4cc5c(-c6cccs6)nccc5[nH]4)n[nH]c3cn2)nc1` [Compound 364, 5-(Pyridin-2-yl)-3-(4-(thiophen-2-yl)-1H-pyrrolo[3,2-c]pyridin-2-yl)-1H-pyrazolo[3,4-c]pyridine]: the half-maximal effective concentration (EC50) in the assay with SW480 colon cancer cells is 4.14 µM; in assay [1], 4.04 µM; in the assay with IL-6 (THP-1 cells), 3.3 µM; in assay [2], 3.12 µM.
For `CN1CCN(c2nccc3[nH]c(-c4n[nH]c5cnc(-c6cncnc6)cc45)cc23)CC1` [Compound 251, 3-(4-(4-Methylpiperazin-1-yl)-1H-pyrrolo[3,2-c]pyridin-2-yl)-5-(pyrimidin-5-yl)-1H-pyrazolo[3,4-c]pyridine], the EC50 (in the assay on SW480 colon cancer cells; in assay [1]; in the assay with IL-6 (THP-1 cells); in assay [2]) was more than 10 µM each time. In addition, the inhibition at 10 µM in the assay on SW480 colon cancer cells is 0%; in assay [1] it was 41.7%; with IL-6 (THP-1 cells) it was 12.1%; in assay [2] it was 17.6%.

Values taken from patent publication US10206908B2, “3-(1H-pyrrolo[3,2-C]pyridin-2-YL)-1H-pyrazolo[3,4-C]pyridines and therapeutic uses thereof” (Samumed, LLC, priority 2015, dated 2019).
